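All cell lines were grown in 96-well plates and treated with compound for 48 hours. The concentration for 50% growth inhibition is given as GI50.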 Activity calls are given as the source filed them. Cut-off read from the data, not from the text of the source: active = GI50 up to about 1.1 µM and inactive = higher.
Assays:
Experiment in all cases: DTP human tumour cell line panel, 48 h
SF-539 = system: SF-539
SR = system: SR
MCF7 = system: MCF7
KM12 = system: KM12
SK-OV-3 = system: SK-OV-3
UACC-257 = system: UACC-257
HOP-62 = system: HOP-62
MOLT-4 = system: MOLT-4
MDA-MB-435 = system: MDA-MB-435
CAKI-1 = system: CAKI-1
RPMI-8226 = system: RPMI-8226
UO-31 = system: UO-31
M14 = system: M14
HCC 2998 = system: HCC 2998
K562 = system: K562
HCT-15 = system: HCT-15
NCI/ADR-RES = system: NCI/ADR-RES
NCI-H226 = system: NCI-H226

| Structure (SMILES) | GI50 (SF-539) | GI50 (SR) | GI50 (MCF7) | GI50 (KM12) | GI50 (SK-OV-3) | GI50 (UACC-257) | GI50 (HOP-62) | GI50 (MOLT-4) | GI50 (MDA-MB-435) | GI50 (CAKI-1) | GI50 (RPMI-8226) | GI50 (UO-31) | GI50 (M14) | GI50 (HCC 2998) | GI50 (K562) | GI50 (HCT-15) | GI50 (NCI/ADR-RES) | GI50 (NCI-H226) |
| --- | --- | --- | --- | --- | --- | --- | --- | --- | --- | --- | --- | --- | --- | --- | --- | --- | --- | --- |
| COc1c(Cl)nc2ccccc2c1N=[N+]=[N-] | 71.9 µM (inactive) | 80 µM (inactive) | > 100 µM (inactive) | > 100 µM (inactive) | > 100 µM (inactive) | > 100 µM (inactive) | 39.7 µM (inactive) | 19.2 µM (inactive) | > 100 µM (inactive) | 49.4 µM (inactive) | 95.7 µM (inactive) | 17.3 µM (inactive) | > 100 µM (inactive) | > 100 µM (inactive) | 83.9 µM (inactive) |  |  |  |
| COc1ccc(CCCNC(=O)Cc2ccccc2CO)cc1OC |  | > 100 µM (inactive) |  | > 100 µM (inactive) |  | > 100 µM (inactive) | > 100 µM (inactive) | > 100 µM (inactive) | > 100 µM (inactive) | > 100 µM (inactive) |  | > 100 µM (inactive) | > 100 µM (inactive) | > 100 µM (inactive) | > 100 µM (inactive) | > 100 µM | > 100 µM (inactive) | > 100 µM (inactive) |
| Cc1cn(C2CC(O)C(COC(=O)NCCC(F)(F)C(F)(F)C(F)(F)C(F)(F)F)O2)c(=O)[nH]c1=O (stereo not given) | > 100 µM (inactive) | > 100 µM (inactive) | > 100 µM (inactive) | > 100 µM (inactive) | > 100 µM (inactive) | > 100 µM (inactive) | > 100 µM (inactive) | > 100 µM (inactive) | 75.2 µM (inactive) | > 100 µM (inactive) |  | > 100 µM (inactive) | > 100 µM (inactive) | > 100 µM (inactive) | > 100 µM (inactive) |  |  | > 100 µM (inactive) |
| O=C1CCCN1C(=O)CS(=O)(=O)c1ccccc1 |  | > 100 µM (inactive) |  | > 100 µM (inactive) | > 100 µM (inactive) | > 100 µM (inactive) | > 100 µM (inactive) | > 100 µM (inactive) | > 100 µM (inactive) | > 100 µM (inactive) | > 100 µM (inactive) | > 100 µM (inactive) | > 100 µM (inactive) | > 100 µM (inactive) | > 100 µM (inactive) | > 100 µM | > 100 µM (inactive) | > 100 µM (inactive) |
| Nc1ccc(S(=O)(=O)c2ccc(NC(=O)c3cccnc3)cc2)cc1 |  |  | > 100 µM (inactive) | > 100 µM (inactive) | > 100 µM (inactive) | 53 µM (inactive) | > 100 µM (inactive) | 57.5 µM (inactive) | > 100 µM (inactive) | > 100 µM (inactive) | 36.6 µM (inactive) | > 100 µM (inactive) | > 100 µM (inactive) | > 100 µM (inactive) | 78 µM (inactive) | > 100 µM | > 100 µM (inactive) | > 100 µM (inactive) |
| CCOC(=O)[C@@]12CCC(C1=O)[C@](C)(O)C[C@@H]2c1ccccc1 | 32.7 µM (inactive) |  |  | 31.8 µM (inactive) | 29.1 µM (inactive) | 75 µM (inactive) | 71.1 µM (inactive) | 30.5 µM (inactive) | 8.07 µM (inactive) | 39.2 µM (inactive) |  | > 100 µM (inactive) | 27.7 µM (inactive) |  | 30.4 µM (inactive) | 25.8 µM | 29 µM (inactive) | > 100 µM (inactive) |
| COc1cc(C=O)ccc1Oc1nnnn1-c1ccccc1 |  | 18.9 µM (inactive) |  | 55 µM (inactive) | > 100 µM (inactive) | > 100 µM (inactive) | > 100 µM (inactive) | 23.1 µM (inactive) | 36.4 µM (inactive) | 31.3 µM (inactive) | 32.8 µM (inactive) | 94.4 µM (inactive) | 31.8 µM (inactive) |  | 34.7 µM (inactive) | 62.5 µM | 38.5 µM (inactive) | < 0.01 µM (active) |

Reference: ChEMBL document CHEMBL1201862, “PubChem BioAssay data set” (2004)
